Counter-ions that a name gives are not always drawn. Like-named read-outs stand apart in the source and are kept apart here.
Tested on: OVCAR-8 cells
Experiment: Drug-siRNA combination screen: 346-compound anticancer library at 100 nM, CCK-8 viability
Conditions: for number of genes (of 18) whose knockdown synergizes with the drug: siRNA knockdown
[1] = OVCAR-8, drug 100 nM plus siRNA knockdown of each of 18 genes, distance VAB−VA×VB in SD, single gene contributes at most +5 / −5, negative = synergy, positive = antagonism
[2] = OVCAR-8, drug 100 nM, panel of 18 siRNA knockdowns

Row | Structure (SMILES) | Score (sum of observed SD values for 18 genes) [1] [SD] | further results
1 | COc1c(C)c2c(c(O)c1C/C=C(\C)CCC(=O)OCCN1CCOCC1)C(=O)OC2 [Mycophenolate mofetil] | −3.2 | –
2 | COc1c(C)c2c(c(O)c1C/C=C(\C)CCC(=O)O)C(=O)OC2 [Mycophenolic acid] | −20.87 | –
3 | O=c1cc(N2CCOCC2)oc2c(-c3cccc4c3sc3ccccc34)cccc12 [NU7441] | −10.42 | –
4 | CCN1CCN(Cc2ccc(-c3cc4c(N[C@H](C)c5ccccc5)ncnc4[nH]3)cc2)CC1 [NVP-AEE788] | −41.08 | –
5 | Cl.Cl.Fc1cc(-c2cccc3ncc(-c4cnn(C5CCNCC5)c4)nc23)cc(F)c1CN1CCOCC1 [NVP-BSK805 2HCI] | −43.77 | –
6 | CC1(C)CCC(c2ccc(Cl)cc2)=C(CN2CCN(c3ccc(C(=O)NS(=O)(=O)c4ccc(N[C@H](CCN5CCOCC5)CSc5ccccc5)c(S(=O)(=O)C(F)(F)F)c4)cc3)CC2)C1 [Navitoclax] | −13.79 | –
7 | CCOc1cc2ncc(C#N)c(Nc3ccc(OCc4ccccn4)c(Cl)c3)c2cc1NC(=O)/C=C/CN(C)C [Neratinib] | – | Score (sum of observed SD values for 18 genes): −39.86 SD; synergy / antagonism of drug with gene knockdowns, in words: significant synergy with nine or more genes
8 | COC(=O)c1ccc2c(c1)NC(=O)/C2=C(\Nc1ccc(N(C)C(=O)CN2CCN(C)CC2)cc1)c1ccccc1 [Nintedanib] | −36.11 | –
9 | COC(=O)Nc1nc2ccc(C(=O)c3cccs3)cc2[nH]1 [Nocodazole] | −7.78 | –
10 | COc1ccc(C2=N[C@@H](c3ccc(Cl)cc3)[C@@H](c3ccc(Cl)cc3)N2C(=O)N2CCNC(=O)C2)c(OC(C)C)c1 [Nutlin-3] | −5.25 | –
11 | C#Cc1cccc(Nc2ncnc3cc(OCCOC)c(OCCO)cc23)c1 [OSI-420] | −27.08 | –
12 | O=C(Nc1ccc(OC(F)(F)F)cc1)c1sccc1NCc1ccnc2ccccc12 [OSI-930] | −0.3 | –
13 | COC1=CC(c2cc3ccccc3[nH]2)=N/C1=C\c1[nH]c(C)cc1C [Obatoclax mesylate] | −10.02 | –
14 | O=C(c1cc(Cc2n[nH]c(=O)c3ccccc23)ccc1F)N1CCN(C(=O)C2CC2)CC1 [Olaparib] | −19.18 | –
15 | C[C@](O)(COc1ccc(C#N)cc1)C(=O)Nc1ccc(C#N)c(C(F)(F)F)c1 [Ostarine] | −14.47 | –
16 | C=CCc1cccc(/C=N/NC(=O)CN2CCN(Cc3ccccc3)CC2)c1O [PAC - 1] | −13.56 | –
17 | CN(C)Cc1c(C(=O)NCCOc2ccc(C(=O)NO)cc2)oc2ccccc12 [PCI-24781] | -54.91 | synergy / antagonism of drug with gene knockdowns, in words [2]: mostly synergistic; number of genes (of 18) whose knockdown synergizes with the drug (OVCAR-8, drug 100 nM): 12 genes
18 | CCN(CC)CCCCNc1ncc2cc(-c3cc(OC)cc(OC)c3)c(NC(=O)NC(C)(C)C)nc2n1 [PD173074] | −46.63 | synergy / antagonism of drug with gene knockdowns, in words [2]: significant synergy with nine or more genes
19 | O=C(NOC[C@H](O)CO)c1ccc(F)c(F)c1Nc1ccc(I)cc1F [PD0325901] | −37.42 | –
20 | CS(=O)(=O)c1cccc(CNc2nc(Nc3ccc4c(c3)CCC(=O)N4)ncc2C(F)(F)F)c1 [PF 573228] | −28.79 | –
21 | CN(c1ncccc1CNc1nc(Nc2ccc3c(c2)CC(=O)N3)ncc1C(F)(F)F)S(C)(=O)=O [PF - 562271] | −17.41 | –
22 | O=C(Nc1cccnc1)N1CCC(Cc2cccc(Oc3ccc(C(F)(F)F)cn3)c2)CC1 [PF-3845] | -51.78 | –

Row | Structure (SMILES) | Score (sum of observed SD values for 18 genes) [1] [SD] | further results
23 | CC(=O)NCC(=O)N1[C@@H]2CC[C@H]1c1ccc(Nc3ncc(C(F)(F)F)c(NC4CCC4)n3)cc12 [PF-03814735] | −30.13 | synergy / antagonism of drug with gene knockdowns, in words [2]: significant synergy
24 | OCCn1cc(-c2cnc3nnn(Cc4ccc5ncccc5c4)c3n2)cn1 [PF-04217903] | −6.89 | –
25 | CNC(=O)c1ccc(C)c(-n2c(C)cc(OCc3ccc(F)cc3F)c(Br)c2=O)c1 [PH-797804] | -64.86 | number of genes (of 18) whose knockdown synergizes with the drug (OVCAR-8, drug 100 nM): 14 genes
26 | Cc1[nH]c(/C=C2\C(=O)Nc3ccc(S(=O)(=O)Cc4c(Cl)cccc4Cl)cc32)c(C)c1C(=O)N1CCC[C@@H]1CN1CCCC1 [PHA-665752] | −13.95 | –
27 | CC(C)CC(=O)Nc1[nH]nc2c1CN(C(=O)C1CCN(C)CC1)C2(C)C [PHA-793887] | −42.75 | synergy / antagonism of drug with gene knockdowns, in words [2]: strong synergies with multiple genes
28 | Oc1cccc(-c2nc(N3CCOCC3)c3oc4ncccc4c3n2)c1 [PI-103] | -56.96 | synergy / antagonism of drug with gene knockdowns, in words [2]: synergy to the vast majority of genes
29 | Cc1ccc([N+](=O)[O-])cc1S(=O)(=O)N(C)/N=C/c1cnc2ccc(Br)cn12 [PIK-75] | −19.42 | –
30 | COc1ccc2c(c1OC)N=C(NC(=O)c1cccnc1)N1CCN=C21 [PIK-90] | −44.52 | –
31 | CC(=O)Nc1nc(C)c(-c2ccc(Cl)c(S(=O)(=O)NCCO)c2)s1 [PIK-93] | −20.62 | –
32 | CC(=O)c1c(C)c2cnc(Nc3ccc(N4CCNCC4)cn3)nc2n(C2CCCC2)c1=O [Palbociclib] | −30.45 | –
33 | COc1ccc(COc2cc3oc(=O)c4cc(C(C)O)ccc4c3cc2OC)cc1 (stereo not drawn) [Palomid 529] | 11.53 | –
34 | NCCC(O)(P(=O)(O)O)P(=O)(O)O [Pamidronate Disodium] | −2.39 | –
35 | CCOc1cc2ncc(C#N)c(Nc3ccc(F)c(Cl)c3)c2cc1NC(=O)/C=C/CN(C)C [Pelitinib] | -54.75 | –
36 | O=C(CCc1ccc(O)cc1)c1c(O)cc(O)cc1O [Phloretin] | −16.21 | –
37 | CCc1ccc(CCOc2ccc(CC3SC(=O)NC3=O)cc2)nc1 (stereo not drawn) [Pioglitazone] | −37.6 | –
38 | Nc1cccc2c1C(=O)N(C1CCC(=O)NC1=O)C2=O (stereo not drawn) [Pomalidomide] | −3.4 | –
39 | Cc1ccc(C(=O)Nc2ccc(CN3CCN(C)CC3)c(C(F)(F)F)c2)cc1C#Cc1cnc2cccnn12 [Ponatinib] | – | Score (sum of observed SD values for 18 genes): −28.62 SD
40 | CCCCc1nc2cc(/C=C/C(=O)NO)ccc2n1CCN(CC)CC [Pracinostat] | −43.48 | synergy / antagonism of drug with gene knockdowns, in words [2]: mostly synergistic; number of genes (of 18) whose knockdown synergizes with the drug (OVCAR-8, drug 100 nM): 11 genes
41 | C[C@]12C=CC(=O)C=C1CC[C@@H]1[C@@H]2C(=O)C[C@@]2(C)[C@H]1CC[C@]2(O)C(=O)CO [Prednisone] | −20.64 | –
42 | O=c1c(O)c(-c2ccc(O)c(O)c2)oc2cc(O)cc(O)c12 [Quercetin] | −5.63 | –
43 | CC(C)(C)c1cc(NC(=O)Nc2ccc(-c3cn4c(n3)sc3cc(OCCN5CCOCC5)ccc34)cc2)no1 [Quizartinib] | −12.85 | –
44 | COc1cc(Nc2ncc(F)c(Nc3ccc4c(n3)NC(=O)C(C)(C)O4)n2)cc(OC)c1OC [R406] | −28.54 | –

From patent US11946094B2, “Combination therapies and methods of use thereof” (Augusta University Research Institute, Inc., priority 2017, dated 2024)
